Assay results taken from US4642340A, “Stable compounds of glucosamine sulphate” (Rotta Research Laboratorium S.p.A., priority 1981, dated 1987).
Read-outs that look alike come from different tables or passages of the source.

What was measured:
mice-embryo fibroblast [1] = experiment: Stimulation of the production of soluble GAG in mice-embryo fibroblast cultures, uptake of ^35 S; format: cell-based, mice (strain C57 BL/6 stCrl); conditions: Mus musculus, Fibroblast, 24 h, read-out: Δ % over non-treated controls, soluble GAG
Experimental: (§2) For this purpose, primary cultures of mice-embryo fibroblasts (strain C57 BL/6 stCrl) were prepared by mechanical and enzymatic dissociation (in Trypsin Versene mixture-Microbiological Associates) of the embryos taken from the mother on the 18th day of pregnancy. The culture medium is the Eagle medium modified by Dulbecco and supplemented with 15% of calf foetus serum. The incubation atmosphere consists of 5% of carbon dioxide in air at 37° C. 24 hours after innoculation, the medium is replaced by a new medium containing the drug under examination and the radioactive precursor (Na2^35 SO4) for the measurement of the synthesis both of soluble and tissue-bound GAG; the culture is left to incubate for a further 24 hours and then the culture medium (containing the soluble GAG) and fibroblasts (containing the tissue-bound GAG) are separated.
(§3) The soluble GAG are isolated from the culture medium by precipitation with a solution of 5% trichloroacetic acid in ice-water while the fibroblast residues, containing the tissue-bound GAG, after repeated washings with physiological solutions, are dissolved in [sequence] or VERSENE.
(§4) The quantity of ^35 S incorporated both in the soluble GAG and in the tissue-bound GAG are evaluated by the usual scintillation methods and expressed in cpm (counts per minute).
(§5) The tests were carried out five times for each sample in order to allow the results to be evaluated statistically.

Acute toxicity in rats = experiment: Acute toxicity in rats; parameters: species or system Sprague Dawley albino rats; conditions: rat, in vivo; for LD50 at 240 h: 10 days observation, read-out: DL50
Source text: Sprague Dawley albino rats having an average weight of about 150 g, subdivided into groups of 10 animals (5 males and 5 females) were used for each dose and for each method of administration.
The methods of administration were: oral by means of a gastric probe, intramuscular and endovenous into the caudal vein.
(§1) The observation time after administration was 10 days.

mice-embryo fibroblast [2] = experiment: Stimulation of the production of tissue-bound GAG in mice-embryo fibroblast cultures, uptake of ^35 S; format: cell-based, mice (strain C57 BL/6 stCrl); conditions: Mus musculus, Fibroblast, 24 h, read-out: Δ % over non-treated controls, tissue-bound GAG
Experimental: as §2, §3, §4, §5

physchem = conditions: solid storage, Titre of glucosamine
[3] = system: granuloma from cotton pellets; experiment: Anti-inflammatory activity, granuloma induced by cotton pellets; format: in vivo, female albino rats of the Sprague Dawley strain; conditions: 4 days; for Average dry weight of the granuloma (average ± s.e.): in mg (unit assumed)
Experimental: The test consists of evaluating the capacity of the substances under examination to inhibit the formation of granuloma following the subcutaneous implantation of extraneous bodies (in this case, cotton pellets). […] One group of animals was used as a control. […] After the subcutaneous implant of 2 cotton pellets each having a weight of 20 mg into the dorsal region, the animals were administered daily, for 4 consecutive days, with the substances under examination in the doses given above.

Acute toxicity in mice = experiment: Acute toxicity in mice; parameters: species or system Swiss NMRI mice; conditions: mouse, in vivo; for LD50 at 240 h: 10 days observation, read-out: DL50
Source text: Swiss NMRI mice having an average weight of 20±2 g, subdivided in groups of 10 animals (5 females and 5 males) were used for each dose and for each method of administration.
The methods of administration were: oral by means of gastric probe, intramuscular and endovenous into the caudal vein.
as §1

[4] = im, intramuscular, max. dose 3000 mg/kg
[5] = iv, endovenous, max. dose 1500 mg/kg

With `N[C@H]1C(O)O[C@H](CO)[C@@H](O)[C@@H]1O.O=S(=O)(O)O` (stereo partly shown) [Glucosamine sulphate, glucosamine sulphate] the activation at 10 µg/mL (mice-embryo fibroblast [1]) was 24.3%, the activation at 50 µg/mL (mice-embryo fibroblast [1]) was 96% and the activation at 100 µg/mL (mice-embryo fibroblast [1]) was 71.2%. It also gave an LD50 at 240 h (Acute toxicity in rats; im, intramuscular) greater than 3000 mg/kg, a mortality at 240 h (Acute toxicity in rats; [4]) of 0% and an LD50 at 240 h (Acute toxicity in rats; iv, endovenous) greater than 1500 mg/kg. For the same compound, the mortality at 240 h (Acute toxicity in rats; [5]) was 0%, the LD50 at 240 h (Acute toxicity in rats; oral) was greater than 5000 mg/kg and the mortality at 240 h (Acute toxicity in rats; oral, max. dose 5000 mg/kg) was 0%. It also gave an activation at 10 µg/mL (mice-embryo fibroblast [2]) of 32.7%, an activation at 50 µg/mL (mice-embryo fibroblast [2]) of 75.6% and an activation at 100 µg/mL (mice-embryo fibroblast [2]) of 94.7%. It also gave a remaining at 8 h (physchem) of 95.8%, a remaining at 16 h (physchem) of 73.8% and a remaining at 72 h (physchem) of 98.4%. The remaining at 168 h (physchem) was 98.3%, the remaining at 360 h (physchem) was 100% and the remaining at 720 h (physchem) was 99.4%. For the same compound, the remaining at 1440 h (physchem) was 98.1%, the Appearance (15° C., 30% R.H., 0 days) was 1 and the Titre of glucosamine (15° C., 30% R.H., 0 days) was 98.7%. The Appearance (15° C., 30% R.H., 7 days) was 1, the Appearance (15° C., 30% R.H., 15 days) was 1 and the Appearance (15° C., 30% R.H., 30 days) was 1. The Appearance (15° C., 30% R.H., 60 days) was 1, the Appearance (15° C., 30% R.H., 120 days) was 2 and the Appearance (15° C., 30% R.H., 360 days) was 2-3. The Appearance (15° C., 45% R.H., 0 days) was 1, the Appearance (15° C., 45% R.H., 7 days) was 1 and the Appearance (15° C., 45% R.H., 15 days) was 1. For the same compound, the Appearance (15° C., 45% R.H., 30 days) was 1, the Appearance (15° C., 45% R.H., 60 days) was 2 and the Appearance (15° C., 45% R.H., 120 days) was 4. The Appearance (15° C., 45% R.H., 360 days) was 6, the Appearance (15° C., 60% R.H., 0 days) was 1 and the Appearance (15° C., 60% R.H., 3 days) was 1. It also gave an Appearance (15° C., 60% R.H., 6 days) of 3, an Appearance (15° C., 60% R.H., 12 days) of 5 and an Appearance (15° C., 60% R.H., 24 days) of 6. For the same compound, the Appearance (15° C., 60% R.H., 36 days) was 6, the Appearance (15° C., 60% R.H., 48 days) was 6 and the Appearance (25° C., 30% R.H., 0 days) was 1. It also gave a Titre of glucosamine (25° C., 30% R.H., 0 days) of 99.6%, an Appearance (25° C., 30% R.H., 7 days) of 1 and an Appearance (25° C., 30% R.H., 15 days) of 1. It also gave an Appearance (25° C., 30% R.H., 30 days) of 1, an Appearance (25° C., 30% R.H., 60 days) of 2 and an Appearance (25° C., 30% R.H., 120 days) of 3. For the same compound, the Appearance (25° C., 30% R.H., 360 days) was 4, the Appearance (25° C., 45% R.H., 0 days) was 1 and the Titre of glucosamine (25° C., 45% R.H., 0 days) was 100.5%. It also gave an Appearance (25° C., 45% R.H., 3 days) of 1, an Appearance (25° C., 45% R.H., 6 days) of 1 and an Appearance (25° C., 45% R.H., 12 days) of 2. For the same compound, the Appearance (25° C., 45% R.H., 24 days) was 3, the Appearance (25° C., 45% R.H., 36 days) was 5 and the Appearance (25° C., 45% R.H., 48 days) was 6. The “Time to complete decomposition” value (25° C., 60% R.H.) was 36 h, the Appearance (25° C., 60% R.H., 0 hours) was 1 and the Appearance (25° C., 60% R.H., 2 hours) was 1. The Appearance (25° C., 60% R.H., 4 hours) was 1, the Appearance (25° C., 60% R.H., 8 hours) was 2 and the Appearance (25° C., 60% R.H., 16 hours) was 3. The Appearance (25° C., 60% R.H., 24 hours) was 4, the Appearance (25° C., 60% R.H., 36 hours) was 6 and the Titre of glucosamine (solid storage, 24 h) was 44.6%. For the same compound, the Titre of glucosamine (solid storage, 72 h) was 100.3%, the Titre of glucosamine (solid storage, 576 h) was 74.5% and the Titre of glucosamine (solid storage, 864 h) was 29.6%. The “% Inhibition of granuloma” value ([3]; 300 mg/kg/os daily) was 40.9%, the “Average dry weight of the granuloma (average ± s.e.)” value ([3]; 300 mg/kg/os daily) was 91.2 ± 10.8 and the “% Inhibition of granuloma” value ([3]; 600 mg/kg/os daily) was 54.1%. For the same compound, the “Average dry weight of the granuloma (average ± s.e.)” value ([3]; 600 mg/kg/os daily) was 70.7 ± 7.9, the LD50 at 240 h (Acute toxicity in mice; im, intramuscular) was greater than 3000 mg/kg and the mortality at 240 h (Acute toxicity in mice; [4]) was 0%. It also gave an LD50 at 240 h (Acute toxicity in mice; iv, endovenous) greater than 1500 mg/kg, a mortality at 240 h (Acute toxicity in mice; [5]) of 0% and an LD50 at 240 h (Acute toxicity in mice; oral) greater than 5000 mg/kg. For the same compound, the mortality at 240 h (Acute toxicity in mice; oral, max. dose 5000 mg/kg) was 0%.
